The results in this text go back to ChEMBL document CHEMBL1201862, “PubChem BioAssay data set” (2004).

Test [1] concerns the target FAD-linked sulfhydryl oxidase ALR (Homo sapiens, UniProt P55789). The experiment in a line: inhibitors of human ALR sulfhydryl oxidase, dose response, biochemical, H2O2 detection, luminescence, cherry-pick (AID 493248).
For test [2], the target named is T1, Heat shock factor protein 1 (Mus musculus, UniProt P38532).
T1 sequence (P38532 whole entry): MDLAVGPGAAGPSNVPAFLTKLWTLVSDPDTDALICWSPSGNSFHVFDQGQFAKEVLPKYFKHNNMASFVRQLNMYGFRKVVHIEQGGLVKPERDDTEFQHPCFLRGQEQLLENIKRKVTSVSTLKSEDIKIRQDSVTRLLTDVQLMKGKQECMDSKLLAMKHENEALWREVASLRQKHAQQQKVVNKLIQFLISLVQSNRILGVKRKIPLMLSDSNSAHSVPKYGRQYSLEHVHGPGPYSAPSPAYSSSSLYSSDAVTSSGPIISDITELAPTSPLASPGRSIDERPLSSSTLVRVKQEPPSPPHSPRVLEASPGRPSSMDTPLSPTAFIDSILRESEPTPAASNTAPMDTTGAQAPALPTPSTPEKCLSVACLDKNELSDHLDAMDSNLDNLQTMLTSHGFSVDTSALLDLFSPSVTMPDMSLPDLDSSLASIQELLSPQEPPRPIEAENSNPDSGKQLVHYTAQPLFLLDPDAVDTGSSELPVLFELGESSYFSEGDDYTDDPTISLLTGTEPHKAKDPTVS
The experiment in a line: HSF1 potentiators in luciferase reporter cells, confirmation, cell-based, NIH3T3, luminescence, dose retest (AID 435004).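 Note: stress induced by proteasome inhibitor MG132 added 30 min after compound; luciferase reporter driven by HSF1 response element in NIH3T3 cells; actives raise luminescence as potentiators of the MG132 stress response.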 In kind it is functional.

The target of test [3] is T1, Heat shock factor protein 1. The experiment in a line: inhibition of MG132-induced HSE-luciferase signal, confirmation, cell-based, NIH3T3, luminescence, dose retest (AID 2382).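 Note: NIH3T3 fibroblasts with HSF1-driven luciferase reporter stressed by proteasome inhibitor MG132; luminescence from HSF1-driven luciferase expression after 8 hours of MG132 stress.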 The test is classed as functional.
A short description of test [4]: NIH-3T3 fibroblast cytotoxicity, dose response, cytotoxicity control, cell-based, fluorescence, Alamar Blue, secondary assay (AID 2327).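 Note: NIH-3T3 mouse fibroblasts cultured with fluconazole at 8 µg/mL.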 The test is classed as functional.
Test [5] in a line: C. albicans growth with fluconazole, confirmation, fluorescence, retest (AID 2467). The test is classed as functional, cell-based.
Test [6] in a line: cytotoxicity toward NIH3T3 fibroblasts, dose response, counter-screen, cell-based, ATP luminescence, mouse fibroblasts (AID 2010).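 Note: cells exposed to compound for about 90 hours before reading.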 The test is classed as functional.
Test [7] is described as follows: inhibitors of intracellular T. cruzi replication, confirmation, NIH3T3 host cells, beta-gal luminescence (AID 2044).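 Note: intracellular parasites grown in NIH/3T3 mouse fibroblasts as host cells; luminescent beta-galactosidase reporter signal from transgenic T. cruzi replicating inside host cells; inhibitors lower the luminescence signal.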 The test is classed as functional, cell-based.
Test [8] has as its target T2, RNA-binding protein pos-1 (Caenorhabditis elegans, UniProt G5EF15).
T2 sequence (G5EF15 whole entry): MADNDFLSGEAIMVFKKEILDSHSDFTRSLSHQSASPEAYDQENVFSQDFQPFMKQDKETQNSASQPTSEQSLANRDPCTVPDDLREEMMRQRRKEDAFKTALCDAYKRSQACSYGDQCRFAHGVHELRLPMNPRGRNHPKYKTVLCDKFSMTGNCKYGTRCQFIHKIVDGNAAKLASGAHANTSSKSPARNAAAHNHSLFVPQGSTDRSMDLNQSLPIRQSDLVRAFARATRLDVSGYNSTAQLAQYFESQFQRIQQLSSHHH
The experiment in a line: inhibitors of POS-1/mex-3 RNA binding, dose response, biochemical, fluorescence polarization (AID 1964).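 Note: purified POS-1 fused to maltose binding protein made in E. coli; potency of compounds blocking POS-1 binding to fluorescent RNA.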

Test [9] concerns the target T3, Zinc finger protein mex-5 (Caenorhabditis elegans, UniProt Q9XUB2).
T3 sequence (Q9XUB2 whole entry): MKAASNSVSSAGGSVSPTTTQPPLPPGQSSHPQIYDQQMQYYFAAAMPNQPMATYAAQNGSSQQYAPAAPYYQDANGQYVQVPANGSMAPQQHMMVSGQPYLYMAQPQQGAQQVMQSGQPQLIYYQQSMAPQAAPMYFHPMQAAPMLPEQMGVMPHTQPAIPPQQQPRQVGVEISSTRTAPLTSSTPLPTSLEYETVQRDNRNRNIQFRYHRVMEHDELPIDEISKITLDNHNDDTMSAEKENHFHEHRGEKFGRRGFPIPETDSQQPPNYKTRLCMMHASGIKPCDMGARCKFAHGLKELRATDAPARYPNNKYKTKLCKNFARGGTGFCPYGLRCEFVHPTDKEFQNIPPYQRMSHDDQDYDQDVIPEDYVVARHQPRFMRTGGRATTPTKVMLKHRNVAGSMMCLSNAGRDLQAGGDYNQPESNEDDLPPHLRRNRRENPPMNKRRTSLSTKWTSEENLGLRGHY
The experiment in a line: MEX-5/TCR-2 RNA interaction inhibitors, dose response, biochemical, C. elegans, fluorescence polarization (AID 1960).

For test [10], the target named is T4, Corticotropin-releasing factor receptor 2/Corticotropin-releasing factor-binding protein (Homo sapiens, UniProt P24387+Q13324).
T4 sequence (Q13324 whole entry): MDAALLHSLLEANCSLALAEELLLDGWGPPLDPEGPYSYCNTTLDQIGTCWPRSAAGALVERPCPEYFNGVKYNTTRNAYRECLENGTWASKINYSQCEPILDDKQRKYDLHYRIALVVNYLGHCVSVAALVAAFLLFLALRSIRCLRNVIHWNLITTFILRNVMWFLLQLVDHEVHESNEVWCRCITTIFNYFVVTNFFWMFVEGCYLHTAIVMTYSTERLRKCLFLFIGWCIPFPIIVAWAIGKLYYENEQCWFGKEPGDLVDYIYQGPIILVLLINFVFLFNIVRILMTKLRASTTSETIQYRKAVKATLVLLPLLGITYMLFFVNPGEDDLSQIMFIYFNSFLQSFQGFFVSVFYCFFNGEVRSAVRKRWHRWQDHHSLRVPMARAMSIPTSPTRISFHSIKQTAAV
T4 sequence (P24387 whole entry): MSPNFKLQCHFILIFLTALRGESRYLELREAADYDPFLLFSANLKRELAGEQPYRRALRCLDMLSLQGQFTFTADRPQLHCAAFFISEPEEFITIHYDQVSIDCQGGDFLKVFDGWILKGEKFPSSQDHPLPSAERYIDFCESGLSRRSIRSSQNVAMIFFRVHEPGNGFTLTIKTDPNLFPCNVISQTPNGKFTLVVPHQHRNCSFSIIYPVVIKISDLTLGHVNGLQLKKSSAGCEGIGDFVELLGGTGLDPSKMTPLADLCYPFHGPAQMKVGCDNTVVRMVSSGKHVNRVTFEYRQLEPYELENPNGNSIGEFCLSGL
The experiment in a line: Dose Response confirmation of uHTS hits for small molecule antagonists of the CRF-binding protein and CRF-R2 receptor complex. In kind it is functional. Particulars: read-out: IC50_Mean.

Test [11] has as its target T4, Corticotropin-releasing factor receptor 2/Corticotropin-releasing factor-binding protein. The experiment in a line: activators of CRF receptor 2 with binding protein – uHTS hits, confirmation (AID 602473). The test is classed as functional. Particulars: read-out: EC50_Mean.
Test [12] has as its target T5, Calpain-2 catalytic subunit (Sus scrofa, UniProt P43367).
T5 sequence (P43367 whole entry): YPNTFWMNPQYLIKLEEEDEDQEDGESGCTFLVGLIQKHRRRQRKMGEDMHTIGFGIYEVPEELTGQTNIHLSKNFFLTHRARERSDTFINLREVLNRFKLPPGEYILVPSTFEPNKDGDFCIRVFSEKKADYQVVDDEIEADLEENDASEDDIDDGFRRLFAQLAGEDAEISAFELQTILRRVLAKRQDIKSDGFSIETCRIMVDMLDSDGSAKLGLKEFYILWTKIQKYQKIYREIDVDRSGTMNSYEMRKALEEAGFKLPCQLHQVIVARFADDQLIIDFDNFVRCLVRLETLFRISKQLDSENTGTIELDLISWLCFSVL
The experiment in a line: pig calpain II inhibitor potency, dose response, biochemical, fluorogenic peptide substrate (AID 1420). In kind it is functional.

Structures are written as SMILES. Activity calls are given as the source filed them. Cut-off read from the data, not from the text of the source, for most assays here: actives have a measured EC50 and inactives only a lower limit.

FAD-linked sulfhydryl oxidase ALR, sequence (P55789 whole entry): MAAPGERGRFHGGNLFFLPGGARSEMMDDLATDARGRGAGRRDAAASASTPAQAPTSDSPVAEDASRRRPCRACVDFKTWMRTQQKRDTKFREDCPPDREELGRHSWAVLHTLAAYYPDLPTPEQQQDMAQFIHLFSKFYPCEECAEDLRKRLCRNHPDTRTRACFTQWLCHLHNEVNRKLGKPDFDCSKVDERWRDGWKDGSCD

Consider `O=C(O)CCc1ccc(-c2cccs2)n1NC(=O)c1ccccc1Br`, for which, in [1], the AC50 is 6.95 µM (active).

For the molecule `NC(=O)c1nn(-c2ccccc2)nc1NC(=O)CN1CCCCC1`, the EC50 in test [2] is > 260 µM (inactive).

Take `Cc1ccccc1NS(=O)(=O)c1cccc2nonc12`: in test [1], the half-maximal activity concentration (AC50) was 8.51 µM (active).

For the molecule `CCC1CCCCN1C(=O)c1cc2c(=O)n3cccc(C)c3nc2s1` (configuration not stated), in test [3], the EC50 was > 195 µM (not active).

With `O=C(CSc1nc(-c2ccco2)cc(C(F)(F)F)n1)NCCc1ccccc1`, the EC50 in test [4] was 136 µM (inconclusive); in test [5], > 38 µM (not active).

With `Cc1ccc(CC2SC(N=C(N)N)=NC2=O)cc1` (configuration not stated), the EC50 in test [2] was > 260 µM (inactive).

In the case of `O=C1N=C(c2ccccc2)C(c2ccccc2)N1` (configuration not stated), in test [1], the AC50 is 0.318 µM (active).

For the molecule `CC(Sc1nc(-c2ccccc2)cc(C(F)(F)F)n1)C(=O)Nc1sc2c(c1C#N)CCC2` (configuration not stated), the EC50 in [6] is > 60 µM (not active); in test [7], 0.137 µM (active); in test [2] it was > 260 µM (inactive).

For `Cc1ccc(-c2nn(C)c(=O)c3ccccc23)cc1S(=O)(=O)NCCN(C)C`, the EC50 in [3] is on record as > 195 µM (not active).

Regarding `O=C(C1CCCO1)N1CCC2(CC1)OCCO2` (configuration not stated), in test [3], the EC50 is on record as > 195 µM (not active).

For the molecule `CCCCOP(=O)(c1ccc(N(C)C)cc1)C(O)c1ccccc1F` (configuration not stated), the EC50 in test [4] was > 150 µM (inactive); in test [5], 2.56 µM (active).

With `Cc1cc(NC(=O)COC(=O)[C@H](C)NC(=O)c2ccccc2)no1`, in test [3], the EC50 was > 195 µM (not active).

With `Cn1c(S)nnc1CCNC(=O)c1ccc(Cl)cc1`, in test [1], the AC50 is 1.54 µM (active).

For the molecule `O=C(Nc1cccn(Cc2c(Cl)cccc2Cl)c1=O)c1ccccc1Cl`, the EC50 in test [2] was > 260 µM (inactive).

On to `CC1=NN(c2ccccc2)C(=O)C1c1ccccc1` (configuration not stated), for which the AC50 in test [1] is 2.86 µM (active).

In the case of `O=C(Nc1ccccc1)C1Cc2ccccc2CN1C(=O)c1ccco1` (configuration not stated), the AC50 in test [1] was 12.9 µM (active).

As to `CCN(CC)S(=O)(=O)c1cccc(C(=O)N/N=C/c2cc(OC)c(O)c(OC)c2)c1`, the AC50 in [1] was 0.21 µM (active).

For `O=C(NCC1CCCO1)c1nn2c(C(F)(F)F)cc(-c3cc(Br)cs3)nc2c1Br` (configuration not stated), the EC50 in test [8] was > 300 µM (not active); in [9], > 300 µM (inconclusive); in test [2], > 260 µM (inactive).

For `CN(C)CCNC(=O)C(=O)NCC(c1ccc2c(c1)OCO2)N1CCN(c2ccc(F)cc2)CC1` (configuration not stated), in test [1], the AC50 is 0.439 µM (active).

As for `COc1ccc(CC(=O)N2CCN=C2SCc2ccc([N+](=O)[O-])cc2)cc1`, the AC50 in [1] is < 0.005 µM (active).

As to `Cc1ccc(-c2nnn[nH]2)cc1`, the EC50 in test [2] is > 260 µM (inactive).

Take `COc1cc(NC(=O)COC(=O)c2ccc(C)c(S(=O)(=O)N3CCCCC3)c2)c(C)cc1[N+](=O)[O-]`: the EC50 in test [2] was > 260 µM (inactive).

With `CN(C)C=O.COc1ccc(/C=C/c2nc3ccccc3c(=O)n2-c2cccc(C(=O)O)c2)cc1`, in [3], the EC50 was 22.7 µM (active).

For the molecule `Cc1cccc(N2CCN(c3cccc(C)c3)C2c2cccnc2)c1`, the EC50 in test [6] is 4.39 µM (active); in test [7], 0.165 µM (active); in test [2], > 260 µM (inactive).

Turning to `O=C(NC(=S)Nc1ccc2oc(=O)ccc2c1)c1cc2ccccc2o1`, the EC50 in test [3] was > 195 µM (not active).

Consider `CC(C)CN(CC(C)C)C(S)=NC1CCCCC1`, for which the results for the EC50 in test [3] and in test [11] were 17 µM (active) and > 53 µM (inactive), respectively. Further, in [10], the IC50 was > 47.1 µM (inactive).

`N#Cc1ccc(OCCN2CCc3ccccc3C2)cc1`: the EC50 in test [2] was > 260 µM (inactive).

Consider `O=C(N/N=C/c1cccc(C(F)(F)F)c1)c1ccc(O)cc1`, for which the EC50 in test [3] is on record as > 195 µM (not active).

For `Cc1ccc(Nc2nc(CSc3nnnn3C)cs2)cc1`, the AC50 in [1] is 1.54 µM (active).

For the molecule `CN1CCC(=NNc2ccc(S(=O)(=O)N3CCOCC3)cc2[N+](=O)[O-])CC1`, the EC50 in test [2] was > 260 µM (inactive).

`C=CCN1C(=O)NC(=O)/C(=C(/C)NC2CCN(Cc3ccccc3)CC2)C1=O`: in test [3], the EC50 is recorded as > 195 µM (not active).

For `Cc1ccc(Nc2nc(CSc3nnc(-c4ccncc4)n3-c3ccccc3C)cs2)cc1`, the EC50 in test [4] was > 160 µM (inactive); in test [5], 4.95 µM (active); in [6] it was > 60 µM (inconclusive); in [7], 2.47 µM (active).

For `Cc1nonc1OCCNCCNc1ccc([N+](=O)[O-])cc1Cl`, in test [2], the EC50 is > 260 µM (inactive).

Take `Cc1ccccc1Nc1scc(-c2ccc(Cl)cc2)[n+]1-c1ccccc1C`: the IC50 in test [12] is reported as > 50 µM (not active).
